Measured values taken from PubChem BioAssay AID324 (DTP/NCI, 2004).
Values joined by “and” are separate entries in the source; they are usually repeats but may differ in a detail not shown here. Equal values may be shown once. Inconclusive results and toxic doses are left out.

Test system: CD2F1 mice, AMSA-resistant P388 leukemia ip, median survival T/C
Assay: NCI In Vivo Anticancer Drug Screen. Data for tumor model P388 Leukemia resistant to AMSA; NSC 249992 (intraperitoneal) in CD2F1 (CDF1) mice
Settings: endpoint: median survival time, higher = longer survival
Protocol: The antitumor activity of compounds was measured in mice bearing transplantable tumors. Survival or tumor size were measured and the results are expressed as the measurement made in the treated group (T) divided by the measurement made in the vehicle treated control group (C). The tumor model used in this assay is P388 Leukemia resistant to AMSA; NSC 249992 (intraperitoneal) in CD2F1 (CDF1) mice

[1] = dose: 4.32 mg/kg/injection, schedule: Q04DX003 (ip), vehicle: water
[2] = dose: 7.2 mg/kg/injection, schedule: Q04DX003 (ip), vehicle: water

Q: With `CCCCC(=O)OCC(=O)[C@]1(O)Cc2c(O)c3c(c(O)c2[C@@H](OC2CC(NC(=O)C(F)(F)F)C(O)C(C)O2)C1)C(=O)c1c(OC)cccc1C3=O` (stereo not given in full) as the compound, how does the T/C (dose: 19.4 mg/kg/injection, schedule: Q04DX003 (ip), vehicle: clinical formulation) read?
A: 106 % of control

Q: And the T/C (dose: 32.4 mg/kg/injection, schedule: Q04DX003 (ip), vehicle: clinical formulation)?
A: 117 % of control

Q: What about the T/C (dose: 54.0 mg/kg/injection, schedule: Q04DX003 (ip), vehicle: clinical formulation) of the same compound?
A: 120 % of control

Q: And the T/C (dose: 90.0 mg/kg/injection, schedule: Q04DX003 (ip), vehicle: clinical formulation)?
A: 113 % of control

Q: What does the source list for `COc1cccc2c1C(=O)c1c(O)c3c(c(O)c1C2=O)C[C@@](O)(/C(C)=N/NC(=O)c1ccccc1)C[C@@H]3OC1CC(N)C(O)C(C)O1` (stereo not given in full)?
A: T/C (dose: 1.94 mg/kg/injection, schedule: Q04DX003 (ip), vehicle: water): 109 % of control; T/C (dose: 3.24 mg/kg/injection, schedule: Q04DX003 (ip), vehicle: water): 117 % of control; T/C (dose: 5.4 mg/kg/injection, schedule: Q04DX003 (ip), vehicle: water): 123 % of control; T/C (dose: 9.0 mg/kg/injection, schedule: Q04DX003 (ip), vehicle: water): 123 % of control; T/C (dose: 15.0 mg/kg/injection, schedule: Q04DX003 (ip), vehicle: water): 115 % of control

Q: How did the T/C (dose: 1.56 mg/kg/injection, schedule: Q04DX003 (ip), vehicle: other) turn out when `COc1cc(NS(C)(=O)=O)ccc1Nc1c2ccccc2nc2ccccc12` was run?
A: 93 % of control

Q: And the T/C (dose: 2.33 mg/kg/injection, schedule: Q01DX001 (ip), vehicle: other)?
A: 111 % of control

Q: What about the T/C (dose: 2.59 mg/kg/injection, schedule: Q01DX001 (ip), vehicle: other) of the same compound?
A: 105 % of control

Q: What about the T/C (dose: 2.59 mg/kg/injection, schedule: Q04DX001 (ip), vehicle: other) of the same compound?
A: 105 % of control

Q: What about the T/C (dose: 2.59 mg/kg/injection, schedule: Q04DX002 (ip), vehicle: other) of the same compound?
A: 111 % of control and 116 % of control

Q: What about the T/C (dose: 2.59 mg/kg/injection, schedule: Q04DX003 (ip), vehicle: clinical formulation) of the same compound?
A: 106 % of control

Q: What about the T/C (dose: 2.59 mg/kg/injection, schedule: Q04DX003 (ip), vehicle: other) of the same compound?
A: 98 % of control and 100 % of control and 106 % of control

Q: What about the T/C (dose: 2.59 mg/kg/injection, schedule: Q04DX003 (ip), vehicle: water) of the same compound?
A: 98 % of control and 100 % of control and 104 % of control

Q: And the T/C (dose: 3.89 mg/kg/injection, schedule: Q01DX001 (ip), vehicle: other)?
A: 109 % of control

Q: What about the T/C (dose: 4.32 mg/kg/injection, schedule: Q01DX001 (ip), vehicle: other) of the same compound?
A: 105 % of control

Q: And the T/C (dose: 4.32 mg/kg/injection, schedule: Q04DX001 (ip), vehicle: other)?
A: 105 % of control

Q: And the T/C (dose: 4.32 mg/kg/injection, schedule: Q04DX002 (ip), vehicle: other)?
A: 117 % of control and 120 % of control

Q: And the T/C (dose: 4.32 mg/kg/injection, schedule: Q04DX003 (ip), vehicle: clinical formulation)?
A: 123 % of control

Q: And the T/C (dose: 4.32 mg/kg/injection, schedule: Q04DX003 (ip), vehicle: other)?
A: 91 % of control and 101 % of control and 108 % of control

Q: What about the T/C [1] of the same compound?
A: 100 % of control and 101 % of control and 105 % of control

Q: What about the T/C (dose: 6.48 mg/kg/injection, schedule: Q01DX001 (ip), vehicle: other) of the same compound?
A: 104 % of control

Q: And the T/C (dose: 7.2 mg/kg/injection, schedule: Q01DX001 (ip), vehicle: other)?
A: 101 % of control

Q: And the T/C (dose: 7.2 mg/kg/injection, schedule: Q04DX001 (ip), vehicle: other)?
A: 101 % of control

Q: And the T/C (dose: 7.2 mg/kg/injection, schedule: Q04DX002 (ip), vehicle: other)?
A: 101 % of control and 114 % of control

Q: What about the T/C (dose: 7.2 mg/kg/injection, schedule: Q04DX003 (ip), vehicle: clinical formulation) of the same compound?
A: 124 % of control

Q: What about the T/C (dose: 7.2 mg/kg/injection, schedule: Q04DX003 (ip), vehicle: other) of the same compound?
A: 97 % of control and 110 % of control and 89 % of control

Q: And the T/C [2]?
A: 102 % of control and 107 % of control and 113 % of control

Q: What about the T/C (dose: 10.0 mg/kg/injection, schedule: Q04DX003 (ip), vehicle: saline with Tween-80) of the same compound?
A: 120 % of control

Q: And the T/C (dose: 10.8 mg/kg/injection, schedule: Q01DX001 (ip), vehicle: other)?
A: 100 % of control

Q: What about the T/C (dose: 12.0 mg/kg/injection, schedule: Q01DX001 (ip), vehicle: other) of the same compound?
A: 99 % of control

Q: What about the T/C (dose: 12.0 mg/kg/injection, schedule: Q04DX001 (ip), vehicle: other) of the same compound?
A: 99 % of control

Q: And the T/C (dose: 12.0 mg/kg/injection, schedule: Q04DX002 (ip), vehicle: other)?
A: 119 % of control and 120 % of control

Q: What about the T/C (dose: 12.0 mg/kg/injection, schedule: Q04DX003 (ip), vehicle: other) of the same compound?
A: 90 % of control and 103 % of control (2×)

Q: What about the T/C (dose: 12.0 mg/kg/injection, schedule: Q04DX003 (ip), vehicle: water) of the same compound?
A: 102 % of control

Q: What about the T/C (dose: 18.0 mg/kg/injection, schedule: Q01DX001 (ip), vehicle: other) of the same compound?
A: 110 % of control

Q: What about the T/C (dose: 20.0 mg/kg/injection, schedule: Q01DX001 (ip), vehicle: other) of the same compound?
A: 90 % of control

Q: What about the T/C (dose: 20.0 mg/kg/injection, schedule: Q04DX001 (ip), vehicle: other) of the same compound?
A: 90 % of control

Q: What about the T/C (dose: 20.0 mg/kg/injection, schedule: Q04DX002 (ip), vehicle: other) of the same compound?
A: 92 % of control and 111 % of control

Q: And the T/C (dose: 20.0 mg/kg/injection, schedule: Q04DX003 (ip), vehicle: other)?
A: 106 % of control

Q: What about the T/C (dose: 30.0 mg/kg/injection, schedule: Q01DX001 (ip), vehicle: other) of the same compound?
A: 105 % of control

Q: With `CCCCCCCC(=O)OCC(=O)[C@]1(O)Cc2c(O)c3c(c(O)c2[C@@H](OC2CC(N)C(O)C(C)O2)C1)C(=O)c1c(OC)cccc1C3=O` (stereo not given in full) as the compound, how does the T/C (dose: 13.3 mg/kg/injection, schedule: Q04DX003 (ip), vehicle: water) read?
A: 102 % of control

Q: How did the T/C (dose: 330.0 mg/kg/injection, schedule: Q01DX009 (ip), vehicle: water) turn out when `NC(=O)c1csc(C2OC(CO)C(O)C2O)n1` (stereo not given) was run?
A: 188 % of control

Q: And the T/C (dose: 500.0 mg/kg/injection, schedule: Q01DX009 (ip), vehicle: water)?
A: 88 % of control

Q: Which T/C (dose: 21.6 mg/kg/injection, schedule: Q04DX003 (ip), vehicle: saline) does the source give for `O=c1[nH]cc(F)c(=O)[nH]1` here?
A: 155 % of control

Q: And the T/C (dose: 36.0 mg/kg/injection, schedule: Q04DX003 (ip), vehicle: saline)?
A: 165 % of control

Q: What about the T/C (dose: 60.0 mg/kg/injection, schedule: Q04DX003 (ip), vehicle: saline) of the same compound?
A: 168 % of control

Q: What about the T/C (dose: 100.0 mg/kg/injection, schedule: Q04DX003 (ip), vehicle: saline) of the same compound?
A: 170 % of control

Q: How did the T/C (dose: 300.0 mg/kg/injection, schedule: Q04DX003 (ip), vehicle: saline) turn out when `CC(CN1CC(=O)NC(=O)C1)N1CC(=O)NC(=O)C1` (stereo not given) was run?
A: 198 % of control

Q: How did the T/C (dose: 2.59 mg/kg/injection, schedule: Q04DX003 (ip), vehicle: saline) turn out when `Nc1ncn(C2OC(CO)C(O)C2O)c(=O)n1` (stereo not given) was run?
A: 156 % of control

Q: What about the T/C (dose: 4.32 mg/kg/injection, schedule: Q04DX003 (ip), vehicle: saline) of the same compound?
A: 200 % of control

Q: What about the T/C (dose: 7.2 mg/kg/injection, schedule: Q04DX003 (ip), vehicle: saline) of the same compound?
A: 200 % of control

Q: What about the T/C (dose: 12.0 mg/kg/injection, schedule: Q04DX003 (ip), vehicle: saline) of the same compound?
A: 211 % of control

Q: What about the T/C (dose: 20.0 mg/kg/injection, schedule: Q04DX003 (ip), vehicle: saline) of the same compound?
A: 276 % of control

Q: For `C[n+]1ccc(Nc2ccc(NC(=O)c3ccc(Nc4cc[n+](C)c5ccc(N)cc45)cc3)cc2)cc1`, which T/C (dose: 1.73 mg/kg/injection, schedule: Q04DX003 (ip), vehicle: water) is on record?
A: 155 % of control

Q: What about the T/C (dose: 4.8 mg/kg/injection, schedule: Q04DX003 (ip), vehicle: water) of the same compound?
A: 154 % of control

Q: What about the T/C (dose: 8.0 mg/kg/injection, schedule: Q04DX003 (ip), vehicle: water) of the same compound?
A: 182 % of control

Q: Which T/C (dose: 0.08 mg/kg/injection, schedule: Q04DX003 (ip), vehicle: saline + alcohol) does the source give for `CO[C@H]1Nc2c(ccc(C)c2O)C(=O)N2C=C(/C=C/C(N)=O)C[C@@H]12` here?
A: 104 % of control

Q: And the T/C (dose: 0.13 mg/kg/injection, schedule: Q04DX003 (ip), vehicle: saline + alcohol)?
A: 123 % of control

Q: What does the source list for `CC[C@@]1(O)C[C@H](OC2CC(N(C)C)C(OC3CC(O)C(OC4CCC(=O)C(C)O4)C(C)O3)C(C)O2)c2c(cc3c(c2O)C(=O)c2c(O)ccc(O)c2C3=O)[C@H]1C(=O)OC` (stereo not given in full)?
A: T/C [1]: 153 % of control and 158 % of control; T/C [2]: 123 % of control and 219 % of control

Q: With `CCC1(O)CC(OC2CC(N(C)C)C(OC3CC4OC5CC(=O)C(C)OC5OC4C(C)O3)C(C)O2)c2c(cc3c(c2O)C(=O)c2c(O)ccc(O)c2C3=O)C1C(=O)OC` (stereo not given) as the compound, how does the T/C (dose: 0.64 mg/kg/injection, schedule: Q04DX003 (ip), vehicle: water) read?
A: 108 % of control

Q: And the T/C (dose: 0.86 mg/kg/injection, schedule: Q04DX003 (ip), vehicle: water)?
A: 112 % of control

Q: What about the T/C (dose: 1.08 mg/kg/injection, schedule: Q04DX003 (ip), vehicle: water) of the same compound?
A: 107 % of control

Q: And the T/C (dose: 1.44 mg/kg/injection, schedule: Q04DX003 (ip), vehicle: water)?
A: 115 % of control

Q: And the T/C (dose: 1.8 mg/kg/injection, schedule: Q04DX003 (ip), vehicle: water)?
A: 117 % of control

Q: And the T/C (dose: 2.4 mg/kg/injection, schedule: Q04DX003 (ip), vehicle: water)?
A: 124 % of control

Q: And the T/C (dose: 5.0 mg/kg/injection, schedule: Q04DX003 (ip), vehicle: water)?
A: 113 % of control

Q: What does the source list for `CO[C@H]1C[C@](C)(O)Cc2cc3c(c(O)c21)C(=O)c1c(O)cc2c(c1C3=O)O[C@@H]1O[C@@]2(C)[C@H](O)[C@@H](N(C)C)[C@@H]1O`?
A: T/C (dose: 6.48 mg/kg/injection, schedule: Q04DX003 (ip), vehicle: other): 111 % of control; T/C (dose: 10.8 mg/kg/injection, schedule: Q04DX003 (ip), vehicle: other): 114 % of control; T/C (dose: 18.0 mg/kg/injection, schedule: Q04DX003 (ip), vehicle: other): 110 % of control; T/C (dose: 30.0 mg/kg/injection, schedule: Q04DX003 (ip), vehicle: other): 102 % of control
